Source: US12438175B2, “Aqueous organic-based electrolyte for redox flow battery” (KEMIWATT, priority 2019, dated 2025)
Values after ≈ are worked out from the molar mass of the structure shown. Counter-ions that a name gives are not always drawn.

Key:
[1] = comparative redox active material in negolytes; cited from earlier work
[2] = Cycling tests of redox flow battery cells in constant power cycling mode
[3] = Cyclic voltammetry / linear sweep voltammetry, electrochemical parameters; type: physicochemical; conditions: for Peak-to-peak separation ΔEp: 100 mV/s, third cycle; for E^0′ apparent standard redox potential / E1/2 half-wave potential: 5 mM, pH 14, 1 M KOH; for E1/2 half-wave potential: RDE; for k^0′O × 10^−2 apparent heterogeneous rate constant: Gileadi's equation; for DO × 10^−6 diffusion coefficient: Randles-Sevcik
Description: Cyclic voltammetry experiments were performed at a 100 mV/s scan rate for compounds M3CH, D3CH, D4CH, M3SH, D3SH, M4SH and D4SH in solution at pH 13 (KOH 0.1 M) or pH 14 (KOH 1 M).
The electrochemical experiments were conducted on an electrochemical working station (BioLogic Science Instruments VSP) at 25° C. using a three-electrodes electrochemical cell, where a Pt wire was employed at the counter electrode (CE), an Ag/AgCl/KCl saturated electrode immerged in a 1 M KOH solution protected from the cell by a porous frit glass served as the reference electrode (RE) and a rotating disc electrode (RDE) mounted with a glassy carbon (GC, 7.069 mm^2) disk was used as the working electrode (WE), respectively. The potential was reported relative to the normal hydrogen electrode (NHE), which was converted from the Ag/AgCl reference electrode (0.230 V versus NHE). The ohmic drop between the WE and RE is determined by current interrupt experiments and leads to a value close to 0.7069 Ω·cm^2. All cyclic voltammetry experiments were conducted by alleviating most of this resistance (85%) using the potentiostat manual ohmic drop compensation. Before each electrochemical measurement, the GC disk electrode was polished using SiC P4000 foil.
Each recorded cyclic voltammetry of the reduction and the oxidation process of a compound at a given scan rate is analyzed by measuring ip,a=anodic peak current; ip,c=cathodic peak current; v=scan rate; Ep,a=anodic peak potential; Ep,c=cathodic peak potential; ΔEp=Ep,a−Ep,c; the apparent standard redox potential E^0′=[…].
Linear sweep voltammetry (LSV) using the RDE at various rotation speed (400 up to 1 000 RPM) were performed to determine the averaged half-wave potential E1/2.
The oxidation (DO) and the reduction (DR) diffusion coefficients were calculated using Randles-Sevcik (RS) equation ip=0.4463·n^3/2·F^3/2·A·C·v^1/2·D^1/2·R^−1/2·T^−1/2=Cye·v^1/2·D^1/2, n=number of electrons exchanged during the redox process; F=faradaic number=96485 C·mol^−1; A=electrode active surface; C=redox active molecule concentration; R=gas constant=8.314 J·K^−1·mol^−1; T=bulk temperature=299 K. The experiments are conducted by cyclic voltammetry at various scan rates ranging from 10 mV/s up to 20 V/s.
A graphic of lip,al and lip,cl=f(Cte×v^1/2) is plotted, if the redox process is reversible and diffusion controlled, the peak current should be proportional to the square root of the scan rate. The diffusion coefficients (oxidation and reduction) are then calculated by taking the square of the regression lines slopes. Diffusion coefficients (oxidation and reduction processes) are evaluated by plotting the peak current versus a constant multiplied by the square root of the scan rate. The plots regression line gives a straight line with perfect correlation coefficient (100%) confirming that the redox process is reversible and diffusion controlled. The square of each slope gives the associated coefficient diffusion in cm^2 s^−1.
The apparent heterogeneous rate constant during oxidation (k^0′O)/and reduction (k^0′R) process was calculated using Gileadi's equation (C. Rüssel, W. Jaenicke, Electrochimica Acta, Vol 27, N° 12, 1745-1750, 1982) log k^0′=−0.48α+0.52 +log[(nFαvcD)/(2.303RT)]^1/2; vc is the critical scan rate, it is calculated by plotting the peak potentials versus the logarithm of the scan rates, and is more precise when a very wide range of scan rates is used, which is the case here (0.010 up to 20 V·s^−1), it is determined at the x-axis of the point of intersection of the regression lines drawn at low and high scan rates; a is the transfer coefficient that is supposed to be close to 0.5 for all presented compounds.
Peak-to-peak separation ΔEp values were determined from the third cycle of each cyclic voltammogram (FIGS. 1 and 2) and are gathered in the following table 4.
The standard redox process reversibility evaluation is performed in diluted state, at 5 mM of concentration, at pH 14 buffered with 1 M of KOH. […]

[4] = type: physicochemical; conditions: pH 13.5
Description: (§1) Post-cycling analyses were carried out using ^1H NMR spectroscopy electrolytes. […] Taking into account the electrolyte-membrane contact time during this cycling test and the NMR spectroscopy resolution, the permeability coefficient of compound D4CH can be estimated below 10^−12 cm^2/s or less than 1% capacity loss per year of electrolyte-membrane contact.
as §1, with “M4SH” for “D4CH”

[5] = Solubility in aqueous solution at various pH by shake-flask method; conditions: thermodynamic from solid
Description: An aqueous solution (containing either KCl 1M, KOH 1M or H2SO4 1M) is added over 100 mg of compound by 20 μL portions until complete solubilization. We obtain an approximate range of solubility values calculated as following:
Smax˜(m/M)/V; m=mass of evaluated compound (g); M=molar mass of evaluated compound (g·mol^−1); V=added volume (L).

[6] = 0.3 M AQ-2,7-DS, pH 13.0, Battery no 3, 60 mL, flowrate 0.5 mL/min/cm^2
[7] = 0.3 M AQ-2,7-DS, pH 13.0, Battery no 3, 60 mL, flowrate 5 mL/min/cm^2
[8] = 0.3 M AQ-2,7-DS, pH 13.0, Battery no 4, 120 mL, flowrate 0.5 mL/min/cm^2
[9] = 0.3 M AQ-2,7-DS, pH 13.0, Battery no 4, 120 mL, flowrate 5 mL/min/cm^2
[10] = extrapolated from 5 days, flowrate 0.5 mL/min/cm^2, negolyte 120/120/40/370 mL
[11] = 0.2 M ARS, pH 14.0, Battery no 1, 60 mL, flowrate 0.5 mL/min/cm^2
[12] = 0.2 M ARS, pH 14.0, Battery no 1, 60 mL, flowrate 5 mL/min/cm^2
[13] = 0.2 M ARS, pH 14.0, Battery no 2, 120 mL, flowrate 0.5 mL/min/cm^2
[14] = 0.2 M ARS, pH 14.0, Battery no 2, 120 mL, flowrate 5 mL/min/cm^2
[15] = 0.3 M Complexone, pH 13.7, Battery no 5, 40 mL, flowrate 0.5 mL/min/cm^2
[16] = 0.3 M Complexone, pH 13.7, Battery no 5, 40 mL, flowrate 5 mL/min/cm^2

Row | SMILES | DO × 10^−6 [1] | k^0′O × 10^−2 [1] | Solubility, solution at pH 0 (H2SO4 1M) [M] | Solubility, solution at pH 14 (KOH 1M) [M] | Peak-to-peak separation ΔEp ([3]; pH 13 (KOH 0.1 M)) [mV] | Peak-to-peak separation ΔEp ([3]; pH 14 (KOH 1 M)) [mV] | other results
1 | O=C1c2ccc(S(=O)(=O)O)cc2C(=O)c2cc(S(=O)(=O)O)ccc21 [AQ-2,7-DS, Anthraquinone-2,7-disulfonic acid disodium salt] | 3.8 × 10^−6 cm^2/s | 0.72 × 10^−2 cm/s | – | – | – | – | Stability in cycles (−20%) [2, 6]: 563 cycles; Stability in days (−20%) [2, 6]: 27.1 days; Stability in cycles (−20%) [2, 7]: 378 cycles; Stability in days (−20%) [2, 7]: 21.1 days; Stability in cycles (−20%) [2, 8]: 0 cycles; Stability in days (−20%) [2, 8]: 0.0 days; Stability in cycles (−20%) [2, 9]: 173 cycles; Stability in days (−20%) [2, 9]: 19.6 days; behaviour after decreasing the flowrate down to 0.5 mL/min/cm^2 ([2]; constraints close to real systems, 0.3 M, pH 13.0): precipitates directly; Stability in cycles (−20%) [2, 10]: 0 cycles; Stability in days (−20%) [2, 10]: 0.0 days
2 | O=C1c2ccccc2C(=O)c2c1cc(S(=O)(=O)O)c(O)c2O [ARS, 1,2-Dihydroxyanthraquinone-3-sulfonic acid sodium salt] | – | – | – | – | – | – | Stability in cycles (−20%) [2, 11]: 81 cycles; Stability in days (−20%) [2, 11]: 3.5 days; Stability in cycles (−20%) [2, 12]: 138 cycles; Stability in days (−20%) [2, 12]: 6.4 days; Stability in cycles (−20%) [2, 13]: 45 cycles; Stability in days (−20%) [2, 13]: 3.8 days; Stability in cycles (−20%) [2, 14]: 62 cycles; Stability in days (−20%) [2, 14]: 6.6 days; Stability in cycles (−20%) [2, 10]: 45 cycles; Stability in days (−20%) [2, 10]: 3.5 days
3 | C[N+](C)(C)CCC[n+]1ccc(-c2cc[n+](CCC[N+](C)(C)C)cc2)cc1.[Cl-].[Cl-].[Cl-].[Cl-] [BTMAP-Vi] | 3.3 × 10^−6 cm^2/s | 2.2 × 10^−2 cm/s | – | – | – | – | –
4 | O=C(O)CN(CC(=O)O)Cc1cc2c(c(O)c1O)C(=O)c1ccccc1C2=O [Complexone, 3,4-Dihydroxyanthraquinon-2-yl-methylimino-diacetic acid] | – | – | – | – | – | – | Stability in cycles (−20%) [2, 15]: 63 cycles; Stability in days (−20%) [2, 15]: 3.2 days; Stability in cycles (−20%) [2, 16]: 69 cycles; Stability in days (−20%) [2, 16]: 3.4 days; Stability in cycles (−20%) [2, 10]: 74 cycles; Stability in days (−20%) [2, 10]: 3.3 days
5 | O=C(O)CCCOc1ccc(OCCCC(=O)O)c2c1C(=O)c1ccccc1C2=O [Compound D3CH] | – | – | 0.30 | 0.42 | 267 | 46 | –
6 | O=C1c2ccccc2C(=O)c2c(OCCCS(=O)(=O)O)ccc(OCCCS(=O)(=O)O)c21 [Compound D3SH] | – | – | 0.73 | 0.92 | 246 | 40 | –
7 | O=C1c2ccccc2C(=O)c2c(OCCCS(=O)(=O)[O-])ccc(OCCCS(=O)(=O)[O-])c21.[Na+].[Na+] [Compound D3SNa] | – | – | 0.15 | 0.44 | – | – | –
8 | O=C(O)CCCCOc1ccc(OCCCCC(=O)O)c2c1C(=O)c1ccccc1C2=O [Compound D4CH] | – | – | 0.00 | 0.46 | 328 | 32 | compound degradation in negolyte after cycling [4]: No traces of compound D4CH degradation were visible
9 | O=C1c2ccccc2C(=O)c2c(OCCCCS(=O)(=O)O)ccc(OCCCCS(=O)(=O)O)c21 [Compound D4SH] | – | – | 0.91 | 0.78 | 390 | 32 | –
10 | O=C1c2ccccc2C(=O)c2c(OCCCS(=O)(=O)O)ccc(O)c21 [Compound M3SH] | – | – | 0.31 | 0.23 | 97 | 40 | E^0′ apparent standard redox potential [3]: −0.489 V vs NHE; E1/2 half-wave potential [3]: −0.489 V vs NHE; k^0′O × 10^−2 apparent heterogeneous rate constant [3]: 3.1 × 10^−2 cm/s; DO × 10^−6 diffusion coefficient [3]: 4.6 × 10^−6 cm^2/s
11 | O=C1c2ccccc2C(=O)c2c(OCCCS(=O)(=O)O)ccc(O)c21 [Compound M3SNa] | – | – | – | – | – | – | solubility ([5]; aqueous H2SO4 1M solution, pH 0, aqueous buffer): 460 mM (≈ 167 mg/mL); solubility ([5]; unbuffered aqueous KCl 1M solution, saline or isotonic): 320 mM (≈ 116 mg/mL)
12 | O=C1c2ccccc2C(=O)c2c(OCCCCS(=O)(=O)O)ccc(O)c21 [Compound M4SH] | – | – | – | 0.46 | 97 | 39 | compound degradation in negolyte after cycling [4]: no traces of compound M4SH degradation were visible; E^0′ apparent standard redox potential [3]: −0.494 V vs NHE; E1/2 half-wave potential [3]: −0.494 V vs NHE; k^0′O × 10^−2 apparent heterogeneous rate constant [3]: 3.1 × 10^−2 cm/s; DO × 10^−6 diffusion coefficient [3]: 5.8 × 10^−6 cm^2/s
13 | O=C1c2ccccc2C(=O)c2c(OCCCCS(=O)(=O)[O-])ccc(O)c21.[Na+] [Compound M4SNa] | – | – | 0.37 | 0.88 | – | – | –
14 | O=C(O)CCCOc1ccc2c(c1)C(=O)c1ccc(OCCCC(=O)O)cc1C2=O [DBEAQ] | 1.58 × 10^−6 cm^2/s | 0.70 × 10^−2 cm/s | – | – | – | – | –
15 | O=C1c2ccc(O)cc2C(=O)c2ccc(O)cc21 [DHAQ] | 4.8 × 10^−6 cm^2/s | 0.70 × 10^−2 cm/s | – | – | – | – | –
16 | O=C1C=C(O)C(=O)C=C1O [DHBQ] | 3.66 × 10^−6 cm^2/s | 0.21 × 10^−2 cm/s | – | – | – | – | –
17 | O=C1c2ccc(OCCCP(=O)(O)O)cc2C(=O)c2ccc(OCCCP(=O)(O)O)cc21 [DPPEAQ] | 1.37 × 10^−6 cm^2/s | – | – | – | – | – | –
18 | Cc1cc2nc3c(=O)[nH]c(=O)nc-3n(C[C@H](O)[C@H](O)[C@H](O)COP(=O)([O-])O)c2cc1C.[Na+] [Flavine FMN-Na] | 1.3 × 10^−6 cm^2/s | 0.53 × 10^−2 cm/s | – | – | – | – | –
19 | O=C1c2ccccc2C(=O)c2c(O)ccc(O)c21 [Quinizarin, quinizarin] | – | – | – | – | – | – | solubility ([5]; aqueous KOH 1M solution, pH 14, aqueous buffer): < 50 mM
